These results are taken from patent US20240365736A1, “COMPOSITIONS AND METHODS FOR TARGETED DEGRADATION OF PROTEINS IN A PLANT CELL” (Oerth Bio LLC, priority 2021, published 2024).

The assay has as its system Matricaria recutita, Diplotaxis tenuifolia, Agrostis spp., Poa annua, or Arabidopsis thaliana. The experiment in a line: Plant phenotyping assay (herbicidal phenotypes, 96-well plates). Note: key: '+++' is highly active; '++' is moderately active; '+' is weakly active; '−' is inactive. Format: in vivo. Conditions: visual score of herbicidal phenotypes after seven days; 238, 475, 950, and 1900 g ai/ha (50-400 uM). As for the experimental part: Seeds of Matricaria recutita, Diplotaxis tenuifolia, Agrostis spp., Poa annua, or Arabidopsis thaliana were sown into 96-well plates containing 200 μl of growth media [0.5× Murashige and Skoog (MS) basal media (Sigma-Aldrich), 2.5 mM 2-(N-morpholino) ethanesulfonic acid (MES—Sigma-Aldrich), 0.7 g/L Phytagar (Invitrogen); pH 5.7]. Three to five seeds were distributed per well. Plates were placed under fifteen hours of light at 23° C., 65% humidity in a controlled environment growth chamber. After approximately three days, test compounds and controls were mixed with acetone and emulsified with an equal volume of 3% methyl ester of rapeseed oil (Mero), and applied to plants at concentrations of 238, 475, 950, and 1900 g ai/ha (50-400 uM).

Turning to `O=C1CCC(N2C(=O)c3cccc(OCCOCCOCCOc4cccc(C(=O)C5C(=O)CCCC5=O)c4Cl)c3C2=O)C(=O)N1` (stereo not drawn) [Compound 1, 4-[2-[2-[2-[2-chloro-3-(2,6-dioxocyclohexanecarbonyl)phenoxy]ethoxy]ethoxy]-ethoxy]-2-(2,6-dioxo-3-piperidyl)isoindoline-1,3-dione], the “Plant Activity” value is “++”.

On to `O=C(COc1cccc2c1C(=O)N(C1CCC(=O)NC1=O)C2=O)NCCOCCOc1cccc(C(=O)C2C(=O)CCCC2=O)c1Cl` (stereo not drawn) [Compound 1-A, N-(2-(2-(2-Chloro-3-(2,6-dioxocyclohexane-1-carbonyl)phenoxy)ethoxy)ethyl)-2-((2-(2,6-dioxopiperidin-3-yl)-1,3-dioxoisoindolin-4-yl)oxy)acetamide], for which the “Plant Activity” value is “+”.

For the compound `O=C1CCC(N2C(=O)c3ccc(N4CCN(CCOCCOCCOc5cccc(C(=O)C6C(=O)CCCC6=O)c5Cl)CC4)cc3C2=O)C(=O)N1` (stereo not drawn) [Compound 2, 5-[4-[2-[2-[2-[2-chloro-3-(2,6-dioxocyclohexane-carbonyl)phenoxy]ethoxy]-ethoxy]ethyl]piperazin-1-yl]-2-(2,6-dioxo-3-piperidyl)isoindoline-1,3-dione], the “Plant Activity” value was “+”.

As to `O=C1CCC(N2C(=O)c3ccc(N4CCN(CCOCCOCCOCCN5CCC(Oc6cccc(C(=O)C7C(=O)CCCC7=O)c6Cl)CC5)CC4)cc3C2=O)C(=O)N1` (stereo not drawn) [Compound 2-A, 5-[4-[2-[2-[2-[2-[4-[2-Chloro-3-(2,6-dioxocyclohexanecarbonyl)phenoxy]-1-piperidyl]ethoxy]ethoxy]ethoxy]ethyl]piperazin-1-yl]-2-(2,6-dioxo-3-piperidyl)isoindoline-1,3-dione], the “Plant Activity” value is listed as “+”.

Take `O=C1CCC(N2C(=O)c3ccc(N4CCN(CCCC5CCN(CCOCCOc6cccc(C(=O)C7C(=O)CCCC7=O)c6Cl)CC5)CC4)cc3C2=O)C(=O)N1` (stereo not drawn) [Compound 2-B, 5-(4-(3-(1-(2-(2-(2-Chloro-3-(2,6-dioxocyclohexane-1-carbonyl)phenoxy)ethoxy)ethyl)piperidin-4-yl)propyl)piperazin-1-yl)-2-(2,6-dioxopiperidin-3-yl)isoindoline-1,3-dione]: the “Plant Activity” value is given as “+”.

As for `CS(=O)(=O)c1ccc(C(=O)C2C(=O)CCCC2=O)c(Cl)c1OCCOCCOCCOc1ccc2c(c1)C(=O)N(C1CCC(=O)NC1=O)C2=O` (stereo not drawn) [Compound 3, 5-[2-[2-[2-[2-chloro-3-(2,6-dioxocyclohexanecarbonyl)-6-methylsulfonyl-phenoxy]ethoxy]ethoxy]ethoxy]-2-(2,6-dioxo-3-piperidyl)isoindoline-1,3-dione], the “Plant Activity” value is on record as “++”.

For `COc1cnc(OC)n2nc(NS(=O)(=O)c3c(OCCOc4ccc5c(c4)C(=O)N(C4CCC(=O)NC4=O)C5=O)cccc3C(F)(F)F)nc12` (stereo not drawn) [Compound 4, N-(5,8-dimethoxy-[1,2,4]triazolo[1,5-c]pyrimidin-2-yl)-2-[2-[2-(2,6-dioxo-3-piperidyl)-1,3-dioxo-isoindolin-5-yl]oxyethoxy]-6-(trifluoromethyl)benzenesulfonamide], the “Plant Activity” value is reported as “+”.

For the compound `COc1cnc(OC)n2nc(NS(=O)(=O)c3c(OCCOCCOCCOCCOCCOc4ccc5c(c4)C(=O)N(C4CCC(=O)NC4=O)C5=O)cccc3C(F)(F)F)nc12` (stereo not drawn) [Compound 4-A, N-(5,8-Dimethoxy-[1,2,4]triazolo[1,5-c]pyrimidin-2-yl)-2-((14-((2-(2,6-dioxopiperidin-3-yl)-1,3-dioxoisoindolin-5-yl)oxy)-3,6,9,12-tetraoxatetradecyl)oxy)-6-(trifluoromethyl)benzenesulfonamide], the “Plant Activity” value was “+++”.

As to `COc1cnc(OC)n2nc(NS(=O)(=O)c3c(OCCOCCOCCOc4ccc5c(c4)C(=O)N(C4CCC(=O)NC4=O)C5=O)cccc3C(F)(F)F)nc12` (stereo not drawn) [Compound 4-C, N-(5,8-Dimethoxy-[1,2,4]triazolo[1,5-c]pyrimidin-2-yl)-2-(2-(2-(2-((2-(2,6-dioxopiperidin-3-yl)-1,3-dioxoisoindolin-5-yl)oxy)ethoxy)ethoxy)ethoxy)-6-(trifluoromethyl)benzenesulfonamide], the “Plant Activity” value is given as “+++”.
